# Entries after “also recorded” stand apart in the source; their conditions may differ. Read-outs that look alike come from different tables or passages of the source.
# Key:
# [1] = system: S. aureus strain CYL574; test: S. aureus strain CYL574-induced septic death in mice (survival); type: in vivo, Balb/c mice
# Experimental: Mice in control group were injected intraperitoneally with PBS.
# Experiments evaluating the effects of low molecular weight heparin in preventing mortality and/or prolonging survival were conducted in an animal model of S. aureus-induced septic death.
# [2] = system: S. aureus; type: in vivo, mice; conditions: 100 or 50 μg per mouse
# Experimental: The therapeutic index of low molecular weight heparin was also evaluated by using several-fold concentrations in excess of the clinical dose (1 mg/kg or 20 μg/mouse). […] These adverse effects included hematuria, subcutaneous hematomas, and bleeding at the site of injection. The majority of the mice that died in the low molecular weight heparin group were documented with at least one episode of bleeding. […] Insight into the actual cause of bleeding can be gained by examining the coagulation profiles.
# [3] = in vivo, cited from earlier work
# [4] = system: S. aureus strain K2; test: S. aureus strain K2-induced sepsis in mice (survival, weight, clinical appearance); conditions: for survival versus PBS control: 20 μg/mouse s.c.
# Experimental: FIGS. 5A-B show the dose effect of dermatan sulfate on the survival of mice infected with a […] dose S. aureus. S. aureus K2 was grown to log phase and set via a nephelometer to an LD60-80% (30 million cfu per mouse in FIG. 5A; 35 million cfu per mouse in FIG. 5B). Balb/c mice were infected intravenously (0.5 ml) on day zero. Animals were then inoculated subcutaneously with low molecular weight heparin or dermatan sulfate (20 μg/mouse) at two hour and subsequently every twenty-four hours. Control group mice were injected with PBS. Clinical appearance and weight was recorded daily.
# FIGS. 6A-B show the dose effect of dermatan sulfate (DS) on mice infected with S. aureus strain K2. S. aureus strain K2 was grown to log phase and set via a nephelometer to a lethal concentration of 40 million cfu per mouse. Balb/c mice were infected intravenously with 40 m cfu's of S. aureus K2. Treatment groups were injected subcutaneously with increasing doses of dermatan sulfate (0.1 to 12.5 mg/kg body weight or 2 to 250 μg of dermatan sulfate) at two hour and subsequently every twenty-four hours. Control group mice were injected subcutaneously with PBS. Clinical appearance and weight were recorded daily. […] In FIG. 6A, n=15 in PBS and n=10 for all doses of dermatan sulfate and in FIG. 6B, n=10 for both the doses of dermatan sulfate.
# FIGS. 7A-B show the dose effect of dermatan sulfate (DS) on mice infected with S. aureus strain K2. S. aureus strain K2 was grown to log phase and set via a nephelometer to a lethal concentration of 40 million cfu per mouse. Balb/c mice were infected intravenously with 40 m cfu's of S. aureus K2 on day 0. Treatment groups were injected subcutaneously with increasing doses of dermatan sulfate (0.025 to 25 mg/kg body weight or 0.5 to 500 μg of dermatan sulfate) at two hour and subsequently every twenty-four hours. Control group mice were injected subcutaneously with PBS. Clinical appearance and weight were recorded daily.
# [5] = system: Fibrinogen; test: Fibrinogen levels in plasma of S. aureus K2-infected mice; type: in vivo, Balb/c mice; conditions: 50-500 μg/day s.c.; 48 hours after infection
# Experimental: (§1) Control group mice were injected subcutaneously with PBS or dermatan sulfate (50 or 500 μg dermatan sulfate per mouse per day). Mice were bled at 48 hours after infection via tail vein. Blood collected in 0.12 M sodium citrate in a 9:1 ratio of blood to citrate. Samples were centrifuged and plasma collected and frozen at −20° C. until use. Plasmas were diluted 1:9 in Owrens buffer for analysis. Fibrinogen levels were determined utilizing control standards as measured by an XM coagulometer according to manufacturer's instructions.
# Plasma samples from S.aureus infected mice were prepared as described in example 7. Fibrinogen levels were determined utilizing control standards using an XM coagulometer according to manufacturer's instructions.
# [6] = system: intrinsic pathway of coagulation; test: Partial thromboplastin time in plasma of S. aureus K2-infected mice; type: in vivo, Balb/c mice; conditions: 48 hours after infection
# Experimental: as §1, with “FIGS. 8A-B show the effect of dermatan sulfate (DS) on the prothrombin time (FIG. 8A) and partial thromboplastin time (FIG. 8B) of mice treated with dermatan sulfate after the onset of S.aureus-induced sepsis. […] Control” for “Control”, “1:3” for “1:9”, “Prothrombin time (PT) and partial thromboplastin time (PTT)” for “Fibrinogen levels”, “utilizing” for “utilizing control standards as measured by”
# The effect of dermatan sulfate on the intrinsic pathway of coagulation was determined by measuring the active partial thromboplastin time. Plasma samples from S.aureus infected mice was prepared as described in example 7. Partial thromboplastin time (PTT) was determined utilizing an XM coagulometer according to the manufacturer's instructions.
# [7] = system: extrinsic pathway of coagulation; test: Prothrombin time in plasma of S. aureus K2-infected mice; type: in vivo, Balb/c mice; conditions: 48 hours after infection
# Experimental: as §1, with “FIGS. 8A-B show the effect of dermatan sulfate (DS) on the prothrombin time (FIG. 8A) and partial thromboplastin time (FIG. 8B) of mice treated with dermatan sulfate after the onset of S.aureus-induced sepsis. […] Control” for “Control”, “1:3” for “1:9”, “Prothrombin time (PT) and partial thromboplastin time (PTT)” for “Fibrinogen levels”, “utilizing” for “utilizing control standards as measured by”
# To ascertain the physiological pathway that is modulated by dermatan sulfate, coagulation profiles of mice treated with low and high concentrations of the compound in the context of S. aureus-induced sepsis was assessed. The extrinsic pathway of coagulation was first evaluated by measuring the prothrombin time (PT) in the plasma of mice forty eight hours after infection with S. aureus and treatment with dermatan sulfate. […] Prothrombin time (PT) was determined utilizing an XM coagulometer according to the manufacturer's instructions.
# [8] = Toxicity of high dose dermatan sulfate in non infected control mice; type: in vivo; conditions: 500 μg/day
# Experimental: A very high dose of approximately 25 mg/kg body weight is detrimental to the infected mice after the onset of sepsis (FIG. 7A). […] But, a high dose of dermatan sulfate was non-toxic to non infected control mice treated with 500 μg/day of dermatan sulfate.
# [9] = system: protein C; test: Protein C levels in plasma of S. aureus K2-infected mice; type: in vivo, Balb/c mice; conditions: 48 hours
# Experimental: as §1, with “Balb/c mice were infected intravenously with 40 million cfu's of S. aureus K2 on day zero. […] Control” for “Control”, “Protein C” for “Fibrinogen”, “as percent levels based on” for “determined utilizing control”, “and its ability to prolong partial thromboplastin time. Clotting assay was evaluated using” for “as measured by”
# Plasma samples from S.aureus infected mice were prepared as described in Example 7. Protein C in the plasma was determined as percent levels based on standards and their ability to prolong partial thromboplastin time. Clotting assay was evaluated using an XM coagulometer according to manufacturer's instructions.
# [10] = 30 million cfu K2, FIG. 5A, n=15
# [11] = 35 million cfu K2, FIG. 5B, n=20
# [12] = infected mice treated with 50 or 500 μg per mouse s.c.
substance,measurement,setting,value
low molecular weight heparin,survival rate,"[1]; high dose 5 mg/kg i.p., after infection, p=0.0017 versus control",92.8%
same,survival rate,"[1]; prophylaxis dose 1 mg/kg i.p., 14 days after infection, PBS control 33.3%",66.7%
same,survival rates as compared to control mice treated with PBS,[2]; data not shown,lower survival rates
same,adverse effects (bleeding),"[2]; high doses, infected mice",signs of bleeding after only 48 hr
same,plasma half-life,[3]; iv,2 to 4 h
same,plasma half-life,[3]; sc,3 to 6 h
same,plasma half-life relative to unfractionated heparin,[3],2-4 times
same,survival versus PBS control,[4]; [10],higher rate a survival than the control group
same,survival versus PBS control,[4]; [11],higher survival rate than the PBS-treated mice
same,survival rate,"[4]; 1 mg/kg i.p., 72 hr, supra-lethal dose K2, PBS control 20%",70%
same,survival rate,"[4]; 1 mg/kg i.p., 96 hr, supra-lethal dose K2, PBS control 0%, p=0.01",60%
same,survival rate,"[4]; 5 mg/kg i.p., 96 hours after infection, PBS control 0%",22.2%
same,"survival, low versus high doses","[4]; s.c., approximately <0.5 mg/kg per day compared with >1 mg/kg per day, FIG. 3",increased survival
dermatan sulfate,fibrinogen levels as compared to infected PBS treated mice,[5],did not exhibit any significant difference
same,partial thromboplastin time as compared to infected PBS treated mice,[6]; 50 μg/day (low dose) s.c.,decrease the partial throboplastin time; also recorded: slight decrease
same,partial thromboplastin time as compared to PBS treated infected mice,[6]; 500 μg/day s.c.,significantly prolonged
same,partial thromboplastin time,[6]; [12],prolonged partial thromboplastin time
same,prothrombin time as compared to infected PBS treated mice,[7]; 500 μg/day (high dose) s.c.,increase the prothrombin time; also recorded: significant increase in prothrombin time
same,prothrombin time,[7]; [12],contracted prothrombin times
same,toxicity in non infected control mice,[8],non-toxic
same,survival versus PBS control,[4]; [10],substantial survival rate
same,survival versus PBS control,[4]; [11],dramatic survival rate
same,clinical state,"[4]; 500 μg/day s.c., first twenty four to forty eight hours",did clinically well
same,effect of very high dose on infected mice (survival),"[4]; approximately 25 mg/kg body weight, 500 μg/day s.c., FIG. 7A",detrimental; also recorded: poor survival
same,weight of surviving animals,"[4]; higher-survival dose versus lower doses, FIG. 6B",substantially lost more weight
same,"protection, high versus lower doses","[4]; s.c., high doses >1 mg/Kg versus <1 mg/Kg, FIGS. 6A-7B",more protective than lower doses
same,survival rates with tapered dose,"[4]; tapering from 16 mg/kg, halved every day to approximately 0.025 mg/Kg on day 13, FIG. 7B",optimal survival rates
same,protein C levels,"[9]; 50 μg/day s.c. (low doses, <10 mg/Kg)",decrease protein C levels; also recorded: broad range of protein c levels that were higher and lower
same,protein C levels,"[9]; 500 μg/day s.c. (high levels, >20 mg/kg), 20 mg/kg",increase plasma C levels; also recorded: dramatically increase protein C levels
chondroitin sulfate A,effect of continued daily high doses in infected mice,"[4]; s.c., continued daily high doses",detrimental
same,survival as compared to infected mice treated with PBS,"[4]; s.c., greater than 10 mg/kg body weight or greater than 200 μg per mouse, FIG. 4",prolonged survival
same,survival,"[4]; s.c., very high doses >100 mg/kg body weight, first days after onset of sepsis",augmented survival

# — patent US20060229276A1, “Use of glycosoaminoglycans for the prevention and treatment of sepsis” (priority 2004, published 2006)
